Results as given in patent US12247011B2, “Selective inhibitors of NLRP3 inflammasome” (NodThera Limited, priority 2017, dated 2025).

Test system: IL-1β release upon NLRP3 activation in peripheral blood mononuclear cells (PBMC)
Experiment: PBMC IC50 Determination Assay
Type: cell-based
Conditions: Homo sapiens; LPS-primed PBMC, 30 min compound, stimulated with ATP (5 mM) or nigericin (10 μM) for 1 h; IL-1β ELISA; read-out: PBMC IC50
Protocol: PBMC IC50 Determination Assay
The compounds of the present disclosure were tested for their inhibitory activity against IL-1β release upon NLRP3 activation in peripheral blood mononuclear cells (PBMC).
Isolated cells were seeded into the wells of a 96-well plate and incubated for 3 h with lipopolysaccharide (LPS). Following medium exchange, the compounds of the present disclosure were added (a single compound per well) and the cells were incubated for 30 min. Next, the cells were stimulated either with ATP (5 mM) or nigericin (10 μM) for 1 h and the cell culture media from the wells were collected for further analysis.
The release of IL-1β into the media was determined by a quantitative detection of IL-1β in the media using an IL-1β enzyme-linked immunosorbent assay (ELISA) Ready-SET-Go!, eBioscience cat. […] Subsequently, plates were blocked with blocking buffer for 1 h at room temperature (rt) and after washing with a buffer (PBS with 0.05% Tween-20) incubated with protein standard and culture media. […] Plates were washed and incubated with HRP-streptavidin for 30 min at rt and washed again. The signal was developed after addition of 3,3,5,5-tetramethylbenzidine-peroxidase (TMB) until colour appeared and the reaction was stopped by 2 M H2SO4. A microplate spectrophotometer (BioTek) was used to detect signals with 450 nm. The detection range of IL-1β ELISA was 2-150 ng/ml.

Which IC50 does the source give for `CCOC(=O)[C@@H](COCCOC)OC(=O)Nc1c2c(cc3c1CCC3)CCC2` [Compound 101, Ethyl (2R)-2-{[(1,2,3,5,6,7-hexahydro-indacen-4-yl)carbamoyl]oxy}-3-(2-methoxyethoxy)propanoate] here?
Its IC50 is 100 to 1000 nM.

With `CCOC(=O)[C@@H](Cn1ccnc1)OC(=O)Nc1c2c(cc3c1CCC3)CCC2` [Compound 67, Ethyl (2R)-2-{[(1,2,3,5,6,7-hexahydro-s-indacen-4-yl)carbamoyl]oxy}-3-(1H-imidazol-1-yl)propanoate] as the molecule, how does the IC50 read?
Its IC50 is 100 to 1000 nM.

How did the IC50 turn out when `CCOC(=O)[C@@H](COC1CCOCC1)OC(=O)Nc1c2c(cc3c1CCC3)CCC2` [Compound 102, Ethyl (2R)-2-{[(1,2,3,5,6,7-hexahydro-s-indacen-4-yl)carbamoyl]oxy}-3-(oxan-4-yloxy)propanoate] was run?
The IC50 was 100 to 1000 nM.

`CCOC(=O)COC(=O)Nc1cccc2ccccc12` [Compound 4, Ethyl 2-{[(naphthalen-1-yl)carbamoyl]oxy}acetate] was tested. Which IC50 did it give?
Its IC50 is 1000 to 10000 nM.

How did the IC50 turn out when `CCOC(=O)[C@@H](Cc1ccc(C#N)cc1)OC(=O)Nc1c2c(cc3c1CCC3)CCC2` [Compound 25, Ethyl 3-(4-cyanophenyl)-2-{[(1,2,3,5,6,7-hexahydro-s-indacen-4-yl)carbamoyl]oxy}propanoate] was run?
Its IC50 is 100 to 1000 nM.

How did the IC50 turn out when `O=C(Nc1c2c(cc3c1CCC3)CCC2)O[C@H](Cn1cccn1)C(=O)O` [Compound 61, (2R)-2-{[(1,2,3,5,6,7-hexahydro-s-indacen-4-yl)carbamoyl]oxy}-3-(1H-pyrazol-1-yl)propanoic acid] was run?
Its IC50 is 100 to 1000 nM.

For `CCOC(=O)C(Cn1cccn1)OC(=O)NC1CCCCCC1` (stereo not drawn) [Compound 56, Ethyl 2-[(cycloheptylcarbamoyl)oxy]-3-(1H-pyrazol-1-yl)propanoate], which IC50 is on record?
Its IC50 is greater than 10000 nM.

Which IC50 does the source give for `CCOC(=O)C(Cn1cccn1)OC(=O)Nc1c(F)cccc1F` (stereo not drawn) [Compound 44] here?
The IC50 was 100 to 1000 nM.

`CCOC(=O)C(Cn1cncc1C)OC(=O)Nc1c2c(cc3c1CCC3)CCC2` (stereo not drawn) [Compound 81, Ethyl 2-{[(1,2,3,5,6,7-hexahydro-s-indacen-4-yl)carbamoyl]oxy}-3-(5-methyl-1H-imidazol-1-yl)propanoate] was tested. Which IC50 did it give?
The IC50 was 1000 to 10000 nM.

Which IC50 does the source give for `CCOC(=O)C(Cn1cccn1)OC(=O)Nc1cccc(C(F)(F)F)c1Cl` (stereo not drawn) [Compound 70, Ethyl 2-({[2-chloro-3-(trifluoromethyl)phenyl]carbamoyl}oxy)-3-(1H-pyrazol-1-yl)propanoate] here?
The IC50 was 1000 to 10000 nM.

`CCOC(=O)COC(=O)Nc1ccccc1C(C)(C)C` [Compound 13, Ethyl 2-{[(2-tert-butylphenyl)carbamoyl]oxy}acetate] was tested. Which IC50 did it give?
The IC50 was 1000 to 10000 nM.

`CCOC(=O)COC(=O)Nc1ccccc1C(C)C` [Compound 15, Ethyl 2-(((2-isopropylphenyl)carbamoyl)oxy)acetate] was tested. Which IC50 did it give?
The IC50 was 1000 to 10000 nM.

For `CCOC(=O)C(Cn1cccn1)OC(=O)Nc1c(C)cc(C(F)(F)F)cc1C` (stereo not drawn) [Compound 91, Ethyl 2-({[2,6-dimethyl-4-(trifluoromethyl)phenyl]carbamoyl}oxy)-3-(1H-pyrazol-1-yl)propanoate], which IC50 is on record?
The IC50 was 1000 to 10000 nM.

How did the IC50 turn out when `CCOC(=O)COC(=O)Nc1c(F)cccc1F` [Compound 2, Ethyl 2-{[(2,6-difluorophenyl)carbamoyl]oxy}acetate] was run?
Its IC50 is 1000 to 10000 nM.

How did the IC50 turn out when `CCOC(=O)C(Cc1ccccn1)OC(=O)Nc1c2c(cc3c1CCC3)CCC2` (stereo not drawn) [Compound 18, Ethyl 2-(((1,2,3,5,6,7-hexahydro-s-indacen-4-yl)carbamoyl)oxy)-3-(pyridin-2-yl)propanoate] was run?
The IC50 was 100 to 1000 nM.

Which IC50 does the source give for `CCOC(=O)C(Cn1cccn1)OC(=O)Nc1c(Cl)cccc1CC` (stereo not drawn) [Compound 85, Ethyl 2-{[(2-chloro-6-ethylphenyl)carbamoyl]oxy}-3-(1H-pyrazol-1-yl)propanoate] here?
The IC50 was 10 to 100 nM.

`COC[C@@H](OC(=O)Nc1c2c(cc3c1CCC3)CCC2)C(=O)O` [Compound 69, (2R)-2-{[(1,2,3,5,6,7-hexahydro-s-indacen-4-yl)carbamoyl]oxy}-3-methoxypropanoic acid] was tested. Which IC50 did it give?
Its IC50 is 100 to 1000 nM.

`Cc1cncc(CC(OC(=O)Nc2c3c(cc4c2CCC4)CCC3)C(=O)OC(C)C)n1` (stereo not drawn) [Compound 117, Propan-2-yl 2-{[(1,2,3,5,6,7-hexahydro-s-indacen-4-yl)carbamoyl]oxy}-3-(6-methylpyrazin-2-yl)propanoate] was tested. Which IC50 did it give?
Its IC50 is less than 10 nM.

Which IC50 does the source give for `CCOC(=O)[C@@H](Cc1cccc(C#N)c1)OC(=O)Nc1c2c(cc3c1CCC3)CCC2` [Compound 41, Ethyl (2R)-3-(3-cyanophenyl)-2-{[(1,2,3,5,6,7-hexahydro-s-indacen-4-yl)carbamoyl]oxy}propanoate] here?
The IC50 was 10 to 100 nM.

For `CCOC(=O)C(Cn1cccn1)OC(=O)Nc1c(C)ccc2ccccc12` (stereo not drawn) [Compound 86, Ethyl 2-{[(2-methylnaphthalen-1-yl)carbamoyl]oxy}-3-(1H-pyrazol-1-yl)propanoate], which IC50 is on record?
Its IC50 is 10 to 100 nM.

Which IC50 does the source give for `CC(C)OC(=O)C(Cc1ncccn1)OC(=O)NC1(C)CCCCC1` (stereo not drawn) [Compound 122, Propan-2-yl 2-{[(1-methylcyclohexyl)carbamoyl]oxy}-3-(pyrimidin-2-yl)propanoate] here?
The IC50 was greater than 10000 nM.

Which IC50 does the source give for `O=C(Nc1c2c(cc3c1CCC3)CCC2)O[C@H](Cn1cncn1)C(=O)OC1CCCC1` [Compound 116, Cyclopentyl (2R)-2-{[(1,2,3,5,6,7-hexahydro-s-indacen-4-yl)carbamoyl]oxy}-3-(1H-1,2,4-triazol-1-yl)propanoate] here?
The IC50 was less than 10 nM.

`CCOC(=O)C(COC)OC(=O)Nc1c2c(cc3c1CCC3)CCC2` (stereo not drawn) [Compound 6, Ethyl 2-{[(1,2,3,5,6,7-hexahydro-s-indacen-4-yl)carbamoyl]oxy}-3-methoxypropanoate] was tested. Which IC50 did it give?
The IC50 was 10 to 100 nM.

Which IC50 does the source give for `CCOC(=O)C(Cn1cccn1)OC(=O)Nc1c(C)csc1C` (stereo not drawn) [Compound 99, Ethyl 2-{[(2,4-dimethylthiophen-3-yl)carbamoyl]oxy}-3-(1H-pyrazol-1-yl)propanoate] here?
The IC50 was 100 to 1000 nM.

With `N#Cc1cnn(C[C@@H](OC(=O)Nc2c3c(cc4c2CCC4)CCC3)C(=O)OC2CCCC2)c1` [Compound 113, Cyclopentyl (2R)-3-(4-cyano-1H-pyrazol-1-yl)-2-{[(1,2,3,5,6,7-hexahydro-s-indacen-4-yl)carbamoyl]oxy}propanoate] as the molecule, how does the IC50 read?
Its IC50 is less than 10 nM.

With `CCOC(=O)C(Cn1cccn1)OC(=O)Nc1ccccc1` (stereo not drawn) [Compound 45, Ethyl 2-[(phenylcarbamoyl)oxy]-3-(1H-pyrazol-1-yl)propanoate] as the molecule, how does the IC50 read?
The IC50 was greater than 10000 nM.

How did the IC50 turn out when `O=C(Nc1c2c(cc3c1CCC3)CCC2)O[C@H](Cn1ccnc1)C(=O)O` [Compound 79, (2R)-2-{[(1,2,3,5,6,7-hexahydro-s-indacen-4-yl)carbamoyl]oxy}-3-(1H-imidazol-1-yl)propanoic acid] was run?
The IC50 was 1000 to 10000 nM.

With `CCOC(=O)COC(=O)Nc1ccccc1C#N` [Compound 11, Ethyl 2-{[(2-cyanophenyl)carbamoyl]oxy}acetate] as the molecule, how does the IC50 read?
Its IC50 is 1000 to 10000 nM.

`CCOC(=O)C(Cn1cccn1)OC(=O)Nc1c(C#N)cccc1CC` (stereo not drawn) [Compound 58, Ethyl 2-{[(2-cyano-6-ethylphenyl)carbamoyl]oxy}-3-(1H-pyrazol-1-yl)propanoate] was tested. Which IC50 did it give?
The IC50 was 1000 to 10000 nM.

How did the IC50 turn out when `CCOC(=O)COC(=O)Nc1c(C)cccc1Cl` [Compound 10] was run?
Its IC50 is 1000 to 10000 nM.

`CCOC(=O)C(Cn1cccn1)OC(=O)Nc1c(C)cccc1F` (stereo not drawn) [Compound 49, Ethyl 2-{[(2-fluoro-6-methylphenyl)carbamoyl]oxy}-3-(1H-pyrazol-1-yl)propanoate] was tested. Which IC50 did it give?
The IC50 was 100 to 1000 nM.

For `CCOC(=O)C(Cn1cccn1)OC(=O)Nc1c(F)ccc(Cl)c1F` (stereo not drawn) [Compound 75, Ethyl 2-{[(3-chloro-2,6-difluorophenyl)carbamoyl]oxy}-3-(1H-pyrazol-1-yl)propanoate], which IC50 is on record?
The IC50 was 100 to 1000 nM.

How did the IC50 turn out when `CCOC(=O)[C@@H](Cn1cc(Cl)cn1)OC(=O)Nc1c2c(cc3c1CCC3)CCC2` [Compound 88, Ethyl (2R)-3-(4-chloro-1H-pyrazol-1-yl)-2-{[(1,2,3,5,6,7-hexahydro-s-indacen-4-yl)carbamoyl]oxy}propanoate] was run?
The IC50 was 10 to 100 nM.

`CCOC(=O)[C@@H](Cn1cc(C(F)(F)F)cn1)OC(=O)Nc1c2c(cc3c1CCC3)CCC2` [Compound 97, Ethyl (2R)-2-{[(1,2,3,5,6,7-hexahydro-s-indacen-4-yl)carbamoyl]oxy}-3-[4-(trifluoromethyl)-1H-pyrazol-1-yl]propanoate] was tested. Which IC50 did it give?
The IC50 was 100 to 1000 nM.

`CC(C)OC(=O)C(Cc1cnc(C#N)cn1)OC(=O)Nc1c2c(cc3c1CCC3)CCC2` (stereo not drawn) [Compound 119, Propan-2-yl 3-(5-cyanopyrazin-2-yl)-2-{[(1,2,3,5,6,7-hexahydro-s-indacen-4-yl)carbamoyl]oxy}propanoate] was tested. Which IC50 did it give?
Its IC50 is less than 10 nM.

`O=C(Nc1c2c(cc3c1CCC3)CCC2)O[C@H](Cn1cncn1)C(=O)O` [Compound 114, (2R)-2-{[(1,2,3,5,6,7-hexahydro-s-indacen-4-yl)carbamoyl]oxy}-3-(1H-1,2,4-triazol-1-yl)propanoic acid] was tested. Which IC50 did it give?
Its IC50 is 100 to 1000 nM.

For `CCOC(=O)COC(=O)Nc1cc(C(F)(F)F)ccc1F` [Compound 7, Ethyl 2-({[2-fluoro-5-(trifluoromethyl)phenyl]carbamoyl}oxy)acetate], which IC50 is on record?
The IC50 was 1000 to 10000 nM.

Which IC50 does the source give for `CCOC(=O)C(Cc1cccc(-n2cccn2)c1)OC(=O)Nc1c2c(cc3c1CCC3)CCC2` (stereo not drawn) [Compound 42, Ethyl 2-{[(1,2,3,5,6,7-hexahydro-s-indacen-4-yl)carbamoyl]oxy}-3-[3-(1H-pyrazol-1-yl)phenyl]propanoate] here?
Its IC50 is 100 to 1000 nM.

With `O=C(Nc1c2c(cc3c1CCC3)CCC2)O[C@H](Cn1cccn1)C(=O)OCc1ccccc1` [Compound 64, Benzyl (2R)-2-{[(1,2,3,5,6,7-hexahydro-s-indacen-4-yl)carbamoyl]oxy}-3-(1H-pyrazol-1-yl)propanoate] as the molecule, how does the IC50 read?
The IC50 was 100 to 1000 nM.
